# According to publication PMC11802874, “The hypolipidemic effect of MI-883, the combined CAR agonist/ PXR antagonist, in diet-induced hypercholesterolemia model” (Nature Communications, 2025):
# Several values for one entry are separate records, joined by “and”; a condition that tells them apart may be missing. Equal entries are not always repeated.
# Key:
# HepaRG cells = test: RT-qPCR mRNA expression in differentiated HepaRG cells
# PXR/NCOA2 = target: T1, PXR/NCOA2 (Homo sapiens, UniProt O75469); test: Mammalian two-hybrid PXR/coactivator NCOA2 recruitment, HepG2; format: cell-based; set-up: key: firefly/Metridia luciferase activity ratio (normalized)
# T1 construct: PXR-LBD (residues 108–434); expressed in transfected cells; host or cells: HepG2
# T1 sequence (O75469 108-434): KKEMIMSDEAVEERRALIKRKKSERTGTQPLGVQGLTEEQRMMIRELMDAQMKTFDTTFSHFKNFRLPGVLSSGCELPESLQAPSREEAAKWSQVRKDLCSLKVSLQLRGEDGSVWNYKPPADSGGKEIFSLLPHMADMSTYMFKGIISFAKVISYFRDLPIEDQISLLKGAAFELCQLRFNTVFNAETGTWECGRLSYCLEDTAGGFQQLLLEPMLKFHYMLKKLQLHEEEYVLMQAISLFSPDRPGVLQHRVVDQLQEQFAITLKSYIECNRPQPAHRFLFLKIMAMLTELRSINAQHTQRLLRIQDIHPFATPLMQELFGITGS
# Description: (§1) The GAL4-dependent pGL4-G5, harboring a pentamer of GAL4 binding sites in front of the E1b promoter was described before.
# (§2) Transient batch transfection of HepG2 cells was done as described above. […] All transfections included 0.01 µg pMetLuc2control per well for normalization of firefly luciferase reporter activities. After overnight incubation with the transfection mixtures, cells were treated with chemicals in a volume of 100 µl of cell culture medium. […] Firefly luciferase activity was measured in 10 µl of cell lysates, and Metridia luciferase activity was analyzed in 10 µl of medium supernatant, both as described before. Results were normalized by dividing firefly luciferase activity by Metridia luciferase activity measured from the same well. Measurements of samples were repeated several times (n ≥ 3).
# PXR/NCOR2 = target: T2, PXR/NCOR2 (Homo sapiens, UniProt O75469); test: Mammalian two-hybrid PXR/corepressor NCOR2 release, HepG2; format: cell-based; set-up: key: firefly/Metridia luciferase activity ratio (normalized)
# T2 construct: PXR-LBD (residues 108–434); expressed in transfected cells; host or cells: HepG2
# T2 sequence (O75469 108-434): as above
# T2 sequence (P19793 whole entry partner, the tested form may be a part): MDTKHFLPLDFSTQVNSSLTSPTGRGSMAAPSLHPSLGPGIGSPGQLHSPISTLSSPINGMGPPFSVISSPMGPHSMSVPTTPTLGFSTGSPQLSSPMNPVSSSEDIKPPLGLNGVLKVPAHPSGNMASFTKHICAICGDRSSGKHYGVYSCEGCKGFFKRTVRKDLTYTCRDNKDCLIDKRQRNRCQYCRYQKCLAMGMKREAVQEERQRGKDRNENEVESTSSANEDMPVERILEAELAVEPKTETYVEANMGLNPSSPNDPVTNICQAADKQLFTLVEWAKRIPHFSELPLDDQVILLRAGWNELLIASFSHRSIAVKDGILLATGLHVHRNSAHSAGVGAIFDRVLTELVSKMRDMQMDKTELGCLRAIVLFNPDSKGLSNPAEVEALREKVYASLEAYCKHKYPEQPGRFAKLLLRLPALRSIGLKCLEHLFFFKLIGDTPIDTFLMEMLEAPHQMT
# Description: as §1, §2
# PPARγ = PPARγ (Homo sapiens, UniProt P37231); test: Luciferase reporter gene assay PPARγ, HepG2
# PPARγ, sequence (P37231 238-503 limits assumed): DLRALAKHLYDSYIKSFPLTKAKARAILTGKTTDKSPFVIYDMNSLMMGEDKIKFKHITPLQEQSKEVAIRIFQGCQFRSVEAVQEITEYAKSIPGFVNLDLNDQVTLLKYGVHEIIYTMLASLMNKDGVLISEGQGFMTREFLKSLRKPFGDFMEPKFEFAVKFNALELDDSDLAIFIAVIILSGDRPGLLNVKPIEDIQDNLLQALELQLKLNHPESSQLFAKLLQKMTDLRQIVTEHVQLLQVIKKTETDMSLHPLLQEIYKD
# Source text: The luciferase reporter gene assays for FXR, LXRα, LXRβ, THα, GRα, PPARα, PPARδ/β, PPARγ, AhR, VD, ERα, ERβ and mouse Car are described in our recent paper[19]
# Gal4-LBD constructs of tested nuclear receptors have been used together with pGL4.31[luc2P/GAL4UAS/Hygro] luciferase reporter construct and pRL-TK Renilla expression vector (both from Promega, Hercules, USA) in HepG2 cells transfected with Lipofectamine 2000 or 3000 reagents. For GRα and FXR receptors, full-length expression vectors have been used with pGRE-luc or pFXRE-luc luciferase constructs. For the aryl hydrocarbon receptor (AhR), p1A1-luc construct was used with only pRL-TK vector for transfection normalization. A dual reporter assay (Promega, Hercules, USA) was used to analyze both firefly and Renilla luciferase activities.
# Gal4-LBD constructs of tested nuclear receptors have been used together with pGL5-luc luciferase reporter construct and pRL-TK Renilla expression vector in HepG2 cells transfected with Lipofectamine 2000 or 3000 reagents. For GRα and FXR receptors, full-length expression vectors have been used with pGRE-luc or pFXRE-luc luciferase constructs. For the aryl hydrocarbon receptor (AhR), p1A1-luc construct was used with only pRL-TK vector for transfection normalization. […] Bars represent means±S.D. (n=3).
# [1] = test system: PXR-responsive CYP3A4(pER6)-luc construct; test: CYP3A4(pER6)-luc luciferase reporter assay in HepG2 cells
# [2] = target: T3, mutant PXR LBD (S208W/S247W/C284W) (Homo sapiens, UniProt O75469, C284W/S208W/S247W); test: CYP3A4 reporter assay with LBP-obstructed mutant PXR in HepG2 cells; format: cell-based; conditions: HepG2, 24 h
# T3 construct: expressed in transfected cells; host or cells: HepG2
# T3 sequence (O75469 whole entry S208W/S247W/C284W, the tested form may be a part): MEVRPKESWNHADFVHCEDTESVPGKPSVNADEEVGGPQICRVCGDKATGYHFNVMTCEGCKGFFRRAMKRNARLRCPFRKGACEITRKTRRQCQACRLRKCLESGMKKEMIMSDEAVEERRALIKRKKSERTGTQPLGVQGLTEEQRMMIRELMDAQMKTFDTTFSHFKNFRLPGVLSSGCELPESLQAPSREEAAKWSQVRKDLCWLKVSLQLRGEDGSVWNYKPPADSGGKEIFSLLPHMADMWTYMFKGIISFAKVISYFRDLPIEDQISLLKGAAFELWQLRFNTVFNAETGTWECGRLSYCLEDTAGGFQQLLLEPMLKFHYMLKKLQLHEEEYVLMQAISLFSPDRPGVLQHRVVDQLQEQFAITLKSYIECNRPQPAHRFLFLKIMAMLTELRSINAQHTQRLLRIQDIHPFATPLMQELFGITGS
# Source text: The luciferase reporter plasmid was used together with the human wild-type PXR expression vector or with expression vectors with mutated PXR LBD (Fig. 1j).
# [3] = single agent 5: MI-883 5, Rif (5 μM) alone
# [4] = single agent: RIF (10 µM), MI-883 10 μM
smiles,measurement,setting,value
"NC(=O)c1cc(Cn2cc(-c3c(-c4ccc(Cl)cc4)nc4cc(F)ccn34)nn2)ccc1Cl [MI-883, 2-chloro-5-((4-(2-(4-chlorophenyl)-7-fluoroimidazo[1,2-a]pyridin-3-yl)-1H-1,2,3-triazol-1-yl)methyl)benzamide]","SREBF1 mRNA fold (Fig. 3f,g sheet), replicates",HepaRG cells; MI-883 1,0.7942 and 0.8996 and 0.7218
same,"SREBF2 mRNA fold (Fig. 3f,g sheet), replicates",HepaRG cells; MI-883 1,0.6439 and 0.7635 and 0.7748 and 1.065 and 0.7449 and 1.037
same,"mRNA fold, Fig. 3b sheet, first block (CYP3A4), replicates","HepaRG cells; MI-883 1 (µM), 24 h",0.8362 and 0.801 and 0.9683 and 1.172 and 0.7446
same,"mRNA fold, Fig. 3b sheet, second block (gene not given; CYP2B6), replicates","HepaRG cells; MI-883 1 (µM), 24 h",2.928 and 2.816 and 2.017 and 3.044 and 1.065
same,"mRNA fold, Fig. 3b sheet, first block (CYP3A4), replicates",HepaRG cells; MI-883 1 + Rif (5 μM),1.353 and 3.215 and 5.541
same,"mRNA fold, Fig. 3b sheet, second block (CYP2B6), replicates",HepaRG cells; MI-883 1 + Rif (5 μM),2.0016 and 2.546 and 5.3
same,"CYP7A1 mRNA fold (Fig. 3f,g sheet), replicates",HepaRG cells; MI-883 5,0.5588 and 0.4759 and 0.4175
same,"INSIG1 mRNA fold (Fig. 3f,g sheet), replicates",HepaRG cells; MI-883 5,1.268 and 1.368 and 1.1831
same,"LDLR mRNA fold (Fig. 3f,g sheet), replicates",HepaRG cells; MI-883 5,1.377 and 1.27 and 1.084
same,"SQLE mRNA fold (Fig. 3f,g sheet), replicates",HepaRG cells; MI-883 5,1.181 (2×) and 1.026
same,"SREBF1 mRNA fold (Fig. 3f,g sheet), replicates",HepaRG cells; MI-883 5,0.6652 and 0.6777 and 0.7568
same,"SREBF2 mRNA fold (Fig. 3f,g sheet), replicates",HepaRG cells; MI-883 5,0.5404 and 1.004 and 0.7053
same,"mRNA fold, Fig. 3b sheet, first block (CYP3A4), replicates",HepaRG cells; MI-883 5 + Rif (5 μM),1.354 and 1.7483 and 1.162
same,"mRNA fold, Fig. 3b sheet, second block (CYP2B6), replicates",HepaRG cells; MI-883 5 + Rif (5 μM),2.182 and 1.817
same,"CYP7A1 mRNA fold (Fig. 3f,g sheet), replicates",HepaRG cells; MI-883 10,0.4275 and 0.3155 and 0.5022 and 0.4393
same,"INSIG1 mRNA fold (Fig. 3f,g sheet), replicates",HepaRG cells; MI-883 10,1.223 and 1.042 and 1.225 and 1.172
same,"LDLR mRNA fold (Fig. 3f,g sheet), replicates",HepaRG cells; MI-883 10,1.481 and 1.183
same,"SQLE mRNA fold (Fig. 3f,g sheet), replicates",HepaRG cells; MI-883 10,1.043 and 1.272 and 0.888 and 1.111 and 1.1255
same,"SREBF1 mRNA fold (Fig. 3f,g sheet), replicates",HepaRG cells; MI-883 10,0.5595 and 0.8022 (2×) and 0.6597
same,"SREBF2 mRNA fold (Fig. 3f,g sheet), replicates",HepaRG cells; MI-883 10,0.6518 and 0.837 and 1.166 and 1.224 and 0.9179 and 0.9421
same,"mRNA fold, Fig. 3b sheet, first block (CYP3A4), replicates",HepaRG cells; MI-883 10,0.3642 and 0.6511 and 0.7047 and 0.8281 and 0.7972 and 0.5808
same,"mRNA fold, Fig. 3b sheet, second block (CYP2B6), replicates",HepaRG cells; MI-883 10,2.037 and 2.07 and 1.475 and 2.671 and 1.239 and 0.7631
same,"mRNA fold, Fig. 3b sheet, first block (CYP3A4), replicates",HepaRG cells; MI-883 10 + Rif (5 μM),0.875 and 1.224 and 1.6089 and 0.7778
same,"mRNA fold, Fig. 3b sheet, second block (CYP2B6), replicates",HepaRG cells; MI-883 10 + Rif (5 μM),1.519 and 3.467 and 2.287 and 1.0661
same,"CYP7A1 mRNA fold (Fig. 3f,g sheet), replicates",HepaRG cells; MI-883 20,0.3598 and 0.7856
same,"INSIG1 mRNA fold (Fig. 3f,g sheet), replicates",HepaRG cells; MI-883 20,1.146 and 1.273
same,"LDLR mRNA fold (Fig. 3f,g sheet), replicates",HepaRG cells; MI-883 20,1.442 and 1.216 and 1.519
same,"SQLE mRNA fold (Fig. 3f,g sheet), replicates",HepaRG cells; MI-883 20,1.646 and 1.048
same,"SREBF1 mRNA fold (Fig. 3f,g sheet), replicates",HepaRG cells; MI-883 20,0.7299 and 0.7553
same,"SREBF2 mRNA fold (Fig. 3f,g sheet), replicates",HepaRG cells; MI-883 20,1.072 and 1.4 and 1.1431
same,"mRNA fold, Fig. 3b sheet, first block (CYP3A4), replicates",HepaRG cells; MI-883 20,0.6466 and 0.6905 and 0.8398 and 0.439
same,"mRNA fold, Fig. 3b sheet, second block (CYP2B6), replicates",HepaRG cells; MI-883 20,1.395 and 1.4687 and 2.208 and 1.5457
same,"mRNA fold, Fig. 3b sheet, first block (CYP3A4), replicates",HepaRG cells; MI-883 20 + Rif (5 μM),0.5897 and 1.016
same,"mRNA fold, Fig. 3b sheet, second block (CYP2B6), replicates",HepaRG cells; MI-883 20 + Rif (5 μM),0.9269 and 2.43 and 1.46
same,CYP7A1 mRNA in HepaRG cells,HepaRG cells; MI-883: in the absence and presence of rifampicin,significant downregulation
same,rifampicin induction of SQLE mRNA in HepaRG cells,"HepaRG cells; MI-883 at 1 μM, SPA70",abrogated
same,"CYP2B6 mRNA, RT-qPCR, HepaRG (Fig. 1f), replicates","HepaRG cells; Phenobarbital 500 μM, CITCO 1 μM, MI 883 1 μM, ctrl = 1",4.75 and 4.15 and 4.1
same,ABCC4 and UGT1A1 genes in HepaRG cells,HepaRG cells; Supplementary Fig. 10,upregulated
same,"mRNA fold, Fig. 3b sheet, first block (CYP3A4), replicates",HepaRG cells; [3],0.6927 and 0.6641 and 0.6779
same,"mRNA fold, Fig. 3b sheet, second block (CYP2B6), replicates",HepaRG cells; [3],3.953 and 2.541 and 3.216
same,"PXR/TIF2 (NCOA2) two-hybrid activity, replicates",PXR/NCOA2; MI-883 30 μM,1.15 and 1.65 and 1.3 and 1.26 and 0.52
same,"PXR/TIF2 (NCOA2) two-hybrid activity, replicates",PXR/NCOA2; [4],0.75 and 0.81 and 0.95 and 0.79 and 0.57
same,"PXR/NCOR2 (SMRT) two-hybrid activity, replicates",PXR/NCOR2; MI-883 30 μM,0.575 and 0.629 and 0.672 and 0.562 and 0.437
same,"PXR/NCOR2 (SMRT) two-hybrid activity, replicates",PXR/NCOR2; [4],0.59 and 0.547 and 0.723 and 0.544 and 0.703
same,"NRs assays: PPARy (relative to ctrl, replicates)",PPARγ,0.61 and 0.89 and 1.05
same,"pER6-luc luciferase gene reporter assay (Fig1 m), replicates",[1]; Rif 1μM + MI-883 30μM,0.18 and 0.17 and 0.185
same,"pER6-luc luciferase gene reporter assay (Fig1 m), replicates",[1]; SR12813 1μM + MI-883 30μM,0.21 and 0.22 and 0.19
same,"pER6-luc luciferase gene reporter assay (Fig1 m), replicates",[1]; single agent 10μM,0.17 and 0.18
same,"pER6-luc luciferase gene reporter assay (Fig1 m), replicates",[1]; single agent 30μM,0.21 and 0.19
same,inhibition of constitutive activity of LBP-obstructed mutant PXR,[2],failure of MI-883 to inhibit
